Measured values: PMC6130680, “In vitro and in vivo antidiabetic potential of extracts and a furostanol saponin from Balanites aegyptiaca” (Pharmaceutical Biology, 2017)
Marks after values point to notes of the source that are not given here. Values belong to the compound of their own block, whether it stands above or below them.

Assays:
[1] = target: α-Glucosidase enzyme from Brewer's yeast (EC 3.2.1.20); assay: α-glucosidase (AG) inhibition assay; type: biochemical; conditions: mean ± standard error; substrate p-NPG; a dash for a tested fraction or compound means no AG activity
From the text: (§1) The positive control, acarbose, was purchased from Bayer Pharmaceuticals Pty, Ltd. (Wayne, NJ). Human recombinant aldose reductase and DL-glyceraldehyde were purchased from Wako Pure Chemical Industries, Ltd. (Osaka, Japan). Gliclazide was obtained from Servier Canada (Laval, QC, Canada). Pre-coated silica plates 60 GF254 (20 × 20 cm) (Fluka, Steinheim, Germany) were used for thin-layer chromatography (TLC). Silica gel H (Merck, Darmstadt, Germany) and Lichroprep RP-18 silica gel (15–25 μm, Merck, Darmstadt, Germany) were used for vacuum liquid chromatography (VLC). Silica gel 60 (70–230 mesh ASTM, Fluka, Steinheim, Germany), Diaion HP 20 (Sigma-Aldrich, St. Louis, MO), and Sephadex LH-20 (Sigma-Aldrich, Steinheim, Sweden) were used for column chromatography (CC). Spots were visualized by spraying with p-anisaldehyde/sulphuric acid.
(§2) AG and AR inhibitory activities of MeEx, ClFr, BuFr, AqFr, as well as the Diaion fractions D1–D6 were tested. AG inhibition was measured spectrophotometrically in a 96-well microplate reader using a procedure reported by Li et al. ([2009]). Acarbose was used as a positive control. The AR (EC 1.1.1.21) inhibitory activity was measured according to the procedure previously reported (Nishimura et al. [1991]). The experiments were repeated three times, and the IC50 values were calculated and expressed as mean ± standard error.

[2] = target: T1, Human recombinant aldose reductase (Homo sapiens, UniProt P15121); assay: aldose reductase (AR) inhibition assay; type: biochemical; conditions: mean ± standard error
T1 construct: purchased Wako Pure Chemical Industries, Ltd. (Osaka, Japan)
From the text: as §1, §2

[3] = tested on: male mature albino mice; assay: acute toxicity study in mice; type: in vivo; conditions: ascending oral doses up to 2000 mg/kg, observed closely for 24 h and daily for 14 days
Description: (§3) Male albino rats (Wistar strain, 150–200 g) and male mature albino mice of 20–25 g were obtained from the animal house colony of the National Research Center, Egypt. The experimental protocol followed the Institutional Animal Ethical Committee of the National Research Centre. The acute toxicity studies were performed on the mice. […] The animals survived and then four additional animals were tested sequentially so that a total of five animals were tested.
The acute toxicities of the three samples (MeEx, BuFr and compound 3) were studied where the mice took ascending oral doses up to 2000 mg/kg of each sample. They were observed closely for 24 h and daily for 14 days, where no mortality was observed.

[4] = tested on: STZ-induced diabetic rats; assay: in vivo antidiabetic activity in STZ-induced diabetic rats; parameters: species or system male albino rats (Wistar strain); conditions: for Glucose level: fasting serum; for Glucose level / C-peptide / Cholesterol level / Insulin / Triglycerides: mean ± SEM, n = 6; for C-peptide / Cholesterol level / Insulin / Triglycerides: serum
Description: as §3
DM was induced by a single i.p. injection of STZ (55 mg/kg) in rats (Brosky and Logothetopoulos [1969]). Only rats with serum glucose levels of more than 250 mg/dL were selected and considered diabetic animals. MeEx, its active fraction (BuFr) and the active compound 3 were tested in the STZ-induced diabetic rats at two dose levels (100 and 200 mg/kg.b/wt) for 2 weeks. At the end of the 2-weeks treatment period, the animals were kept for an overnight fasting and the blood samples were collected from the retroorbital plexus and allowed to clot for 30 min at room temperature. These blood samples were centrifuged at 5000 rpm for 20 min and the serum was separated and stored at −80 °C until analysis was done. Serum samples were analyzed spectrophotometrically for serum glucose, triglycerides and cholesterol. Serum glucose was estimated by glucose oxidase–peroxidase method test agent kit (Stanbio, Boerne, TX) (Cheyne and Gilmore [1973]). Triglycerides were estimated by enzymatic methods by using a diagnostic kit (Biodiagnostic, Cairo, Egypt) (Fossati and Prencipe [1982]). Total cholesterol was estimated by enzymatic methods by using a diagnostic kit (Biodiagnostic, Cairo, Egypt) (Allain et al. [1974]). Serum insulin was estimated by a […] using the ALPCO Insulin (Rat) ELISA kit (Judzewitsch et al. [1982]). Serum C-peptide was measured with a rat insulin enzyme-linked immune absorbent assay kit (C-Peptide EIA Kit, Sigma-Aldrich, St. Louis, MO). Results were expressed as mean ± SEM for biochemical estimations. The quantitative data were analyzed by ANOVA followed by Tukey multiple comparison tests. The Kruskal–Wallis test was used for the quantitative analysis of the histopathology score values. Results were considered to be significant at p < 0.05.

[5] = 200 mg/kg for 2 weeks, versus diabetic control

AG inhibition IC50 [1]: 24.00 ± 2.31 µg/mL
Structure (SMILES): C[C@H]1O[C@H](O[C@H]2[C@H](O)[C@@H](O)[C@@H](O[C@H]3[C@H](O)[C@@H](O)C(O)O[C@@H]3CO)O[C@@H]2CO)[C@H](O)[C@@H](O)[C@@H]1N[C@H]1C=C(CO)[C@@H](O)[C@H](O)[C@H]1O (stereo partly shown) [Acarbose, acarbose, reference compound]

Structure (SMILES): CC[C@H](/C=C/C(C)C1CCC2C3CC=C4C[C@@H](O[C@@H]5O[C@H](CO)[C@@H](O)[C@H](O)[C@H]5O)CCC4(C)C3CCC12C)C(C)C (stereo partly drawn) [Compound 1, stigmasterol-3-O-β-D-glucopyranoside]
AR inhibition IC50 [2]: inactive
IC50 [2]: 49.7 µM

Structure (SMILES): CC(O)C1C(O)CC2C3CC=C4CC(OC5OC(CO)C(O)C(O)C5O)CCC4(C)C3CCC21C [Compound 2, pregn-5-ene-3β,16β,20(R)-triol 3-O-β-D-glucopyranoside]
AR inhibition IC50 [2]: inactive
IC50 [2]: 24.6 µM

Structure (SMILES): COC1(CC[C@@H](C)CO[C@@H]2O[C@H](CO)[C@@H](O)[C@H](O)[C@H]2O)OC2C[C@H]3[C@@H]4CC=C5C[C@@H](O[C@@H]6O[C@H](CO)[C@@H](O[C@@H]7O[C@H](CO)[C@@H](O)[C@H](O)[C@H]7O)[C@H](O)[C@H]6O[C@@H]6O[C@@H](C)[C@H](O)[C@@H](O)[C@H]6O)CC[C@]5(C)[C@H]4CC[C@]3(C)C2[C@@H]1C (stereo partly drawn) [Compound 3, 26-(O-β-D-glucopyranosyl)-22-O-methylfurost-5-ene-3β,26-diol-3-O-β-D-glucopyranosyl-(1 → 4)-[α-L-rhamnopyranosyl-(1 → 2)]-β-D-glucopyranoside]
mortality (acute toxicity) [3]: no mortality
Glucose level ([4]; 100 mg/kg for 2 weeks): 207.4 ± 18.33^a mg/dL
C-peptide ([4]; 100 mg/kg for 2 weeks): 1.42 ± 0.07^a ng/mL
Cholesterol level ([4]; 100 mg/kg for 2 weeks): 139.2 ± 10.30 mg/dL
Insulin ([4]; 100 mg/kg for 2 weeks): 1.99 ± 0.04^a μIU/mL
Triglycerides ([4]; 100 mg/kg for 2 weeks): 112.2 ± 9.89 mg/dL
Glucose level ([4]; 200 mg/kg for 2 weeks): 122.2 ± 18.22^b mg/dL
C-peptide ([4]; 200 mg/kg for 2 weeks): 2.04 ± 0.06^b ng/mL
Cholesterol level ([4]; 200 mg/kg for 2 weeks): 115.6 ± 7.12^b mg/dL
Insulin ([4]; 200 mg/kg for 2 weeks): 3.17 ± 0.28^b μIU/mL
Triglycerides ([4]; 200 mg/kg for 2 weeks): 113.5 ± 7.73 mg/dL
increase in C-peptide level [4, 5]: 65%
reduction in fasting blood/plasma glucose level [4, 5]: 51.39%
reduction in total cholesterol level [4, 5]: 31.19%
reduction in total cholesterol level ([4]; 200 mg/kg for 2 weeks, versus diabetic control, listed as furostanol saponin 3): 31.9%
IC50 [2]: 0.964 µM
AG inhibition IC50 [1]: 03.12 ± 0.17 µg/mL

Structure (SMILES): Cc1ccc(S(=O)(=O)NC(=O)NN2CC3CCCC3C2)cc1 (stereo not shown) [Gliclazide, reference compound]
Glucose level ([4]; 10 mg/kg (standard drug)): 93.09 ± 5.80^b mg/dL
C-peptide ([4]; 10 mg/kg (standard drug)): 1.78 ± 0.11 ng/mL
Cholesterol level ([4]; 10 mg/kg (standard drug)): 125.3 ± 5.98^b mg/dL
Insulin ([4]; 10 mg/kg (standard drug)): 2.82 ± 0.18^a^,^b μIU/mL
Triglycerides ([4]; 10 mg/kg (standard drug)): 103.7 ± 9.73 mg/dL
reduction in cholesterol level ([4]; 10 mg/kg (standard drug), versus diabetic control): 25.42%
